Assay results published in patent US20100286217A1, “STABLE, LOW VOC, LOW VISCOUS BIOCIDAL FORMULATIONS AND METHOD OF MAKING SUCH FORMULATIONS” (priority 2008, published 2010).

Test: Dissolution of IPBC in MPEG-350/DMSO versus PEG-400/DMSO
Format: physicochemical
Conditions: 60% IPBC solution
Description: In a 100 ml beaker is added about 25 ml of solvent, and the weight is recorded to four significant digits. The beaker is heated to 40-60° C. (depending on the active being tested) in a water bath. The solute of interest is added stepwise (all aliquot weights are recorded to four significant digits) until saturation is achieved. Once the solid remains undissolved, back-titration with known weights of solvent are performed until the solution is clear.
This example compares the viscosity and VOC content of 55 and 60% IPBC formulations in MPEG-350/DMSO and PEG-400/DMSO. For the 55% IPBC solutions, 10% DMSO is used. For the 60% solutions, only 10% DMSO is required for complete dissolution of the IPBC when MPEG is used, however, 15% DMSO is required for complete dissolution of the IPBC when PEG 400 is used. Viscosity and VOC data are in Table 6.

SMILES: CCCCNC(=O)OCC#CI [IPBC, 3-iodo-2-propynyl butyl carbamate]
- DMSO required for complete dissolution of the IPBC (MPEG used): 10%
- DMSO required for complete dissolution of the IPBC (PEG 400 used): 15%
